Test results published in BindingDB's records for doi:10.7270/Q2SX6GDH (n/a, 1996).

Key:
[1] = molecular target: T1, 5-hydroxytryptamine receptor 1D (Sus scrofa, UniProt P79400); assay: (§1) Compound was tested for its ability to displace [3H]-5-HT binding to 5-hydroxytryptamine 1D receptor recognition sites in pig caudate membranes
[2] = molecular target: T1, 5-hydroxytryptamine receptor 1D; assay: ChEBML_1955; protocol: as §1
[3] = molecular target: 5-hydroxytryptamine receptor 2A (Rattus norvegicus, UniProt P14842); assay: ChEBML_2582
Protocol: Compound was tested for its ability to displace [3H]DOB from 5-hydroxytryptamine 2A receptor in rat cortex homogenates

[4] = molecular target: T2, 5-hydroxytryptamine receptor 3A/3B (Rattus norvegicus, UniProt P35563+Q9JJ16); assay: (§2) Compound was tested for its ability to displace [3H]-Q-ICS 205-930 from 5-hydroxytryptamine 3 receptor in rat cortex homogenates
T2 sequence (P35563 whole entry): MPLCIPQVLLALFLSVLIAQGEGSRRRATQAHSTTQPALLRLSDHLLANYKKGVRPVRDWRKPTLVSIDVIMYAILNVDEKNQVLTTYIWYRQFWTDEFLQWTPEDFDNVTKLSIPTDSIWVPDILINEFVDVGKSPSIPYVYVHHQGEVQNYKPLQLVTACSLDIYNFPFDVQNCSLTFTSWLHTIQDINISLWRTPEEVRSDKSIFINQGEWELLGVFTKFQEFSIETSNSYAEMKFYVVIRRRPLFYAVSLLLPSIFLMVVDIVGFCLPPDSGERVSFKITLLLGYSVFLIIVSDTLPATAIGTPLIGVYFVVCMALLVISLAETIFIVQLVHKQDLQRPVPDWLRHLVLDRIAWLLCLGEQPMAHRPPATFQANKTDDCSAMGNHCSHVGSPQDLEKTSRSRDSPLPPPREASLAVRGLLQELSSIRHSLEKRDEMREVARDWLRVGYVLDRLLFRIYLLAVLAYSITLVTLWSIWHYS
T2 sequence (Q9JJ16 whole entry): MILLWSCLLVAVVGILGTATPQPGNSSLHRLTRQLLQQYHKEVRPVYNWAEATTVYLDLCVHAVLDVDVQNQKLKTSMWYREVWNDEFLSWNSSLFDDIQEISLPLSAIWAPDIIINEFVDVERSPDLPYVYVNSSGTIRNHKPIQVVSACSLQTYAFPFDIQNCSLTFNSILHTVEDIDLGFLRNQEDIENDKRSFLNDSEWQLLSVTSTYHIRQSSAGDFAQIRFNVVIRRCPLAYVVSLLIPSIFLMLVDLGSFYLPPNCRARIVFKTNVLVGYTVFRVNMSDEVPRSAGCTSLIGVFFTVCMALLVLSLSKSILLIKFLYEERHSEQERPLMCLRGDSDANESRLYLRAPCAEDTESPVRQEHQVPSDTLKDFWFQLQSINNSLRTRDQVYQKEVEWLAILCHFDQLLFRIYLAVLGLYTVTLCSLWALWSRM

[5] = Compound was tested for its ability to displace [3H]mesulergine from 5-hydroxytryptamine 2C receptor in pig cortex
[6] = Compound was tested for its ability to displace [3H]-5-HT binding to 5-hydroxytryptamine 1D receptor recognition sites in pig caudate membranes
[7] = Compound was tested for its ability to displace [3H]8-OH-DPAT from 5-hydroxytryptamine 1A receptor in pig cortex
[8] = molecular target: T2, 5-hydroxytryptamine receptor 3A/3B; assay: ChEBML_3165; protocol: as §2
[9] = molecular target: T1, 5-hydroxytryptamine receptor 1D; assay: Compound was tested for its ability to displace [125I]GTI binding to 5-hydroxytryptamine 1D receptor recognition sites in pig caudate membranes

T1 sequence (P79400 whole entry): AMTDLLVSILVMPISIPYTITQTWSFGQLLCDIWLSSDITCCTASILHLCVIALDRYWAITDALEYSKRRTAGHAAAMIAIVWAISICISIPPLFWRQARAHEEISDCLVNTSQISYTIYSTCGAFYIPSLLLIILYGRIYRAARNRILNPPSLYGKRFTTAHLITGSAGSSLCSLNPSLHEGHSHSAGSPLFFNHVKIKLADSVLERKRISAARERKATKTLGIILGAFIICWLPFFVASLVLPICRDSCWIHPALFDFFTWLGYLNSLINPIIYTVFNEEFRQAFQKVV
Sequence of 5-hydroxytryptamine receptor 2A (P14842 whole entry): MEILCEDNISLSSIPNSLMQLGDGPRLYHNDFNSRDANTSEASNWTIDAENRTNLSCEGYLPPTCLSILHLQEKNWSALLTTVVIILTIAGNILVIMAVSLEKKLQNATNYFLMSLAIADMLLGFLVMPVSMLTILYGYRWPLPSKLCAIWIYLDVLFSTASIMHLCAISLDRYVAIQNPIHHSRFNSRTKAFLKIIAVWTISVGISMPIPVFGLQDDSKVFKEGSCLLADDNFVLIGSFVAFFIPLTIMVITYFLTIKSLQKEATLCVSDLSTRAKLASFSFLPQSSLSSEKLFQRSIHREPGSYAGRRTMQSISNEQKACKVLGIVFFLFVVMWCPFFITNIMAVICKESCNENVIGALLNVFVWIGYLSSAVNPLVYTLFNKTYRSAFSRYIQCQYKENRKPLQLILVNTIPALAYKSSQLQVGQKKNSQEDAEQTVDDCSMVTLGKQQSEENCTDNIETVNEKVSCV

Row | SMILES | IC50 [1] [nM] | IC50 [2] [nM] | IC50 [3] [nM] | IC50 [4] [nM] | IC50 [5] [nM] | IC50 [6] [nM] | IC50 [7] [nM] | IC50 [8] [nM] | IC50 [9] [nM]
1 | CN1CCC(c2c[nH]c3ccc(-n4cnnc4)cc23)CC1 | 8 | 1.2 | > 10000 | 2700 |  |  |  |  | 
2 | CN(C)CCc1c[nH]c2ccc(-n3cncn3)cc12 |  |  |  |  | 500 | 20 | 25 |  | 
3 | CN(C)CCc1c[nH]c2ccc(-n3cnnc3)cc12 [Dimethyl-[2-(5-[1,2,4]triazol-4-yl-1H-indol-3-yl)-ethyl]-amine] | 2 | 0.43 | > 10000 |  |  |  |  | > 10000 | 
4 | CN(C)CCc1c[nH]c2ccc(Cn3cncn3)cc12 [N,N-dimethyl-2-[5-(1H-1,2,4-triazol-1-ylmethyl)-1H-indol-3-yl]ethanamine] | 49 |  | 7200 | 4100 |  |  |  |  | 16
5 | CNS(=O)(=O)Cc1ccc2[nH]cc(CCN(C)C)c2c1 [Sumax] |  |  |  | > 10000 |  |  |  |  | 
